Patent publication US20070259866A1, “Method of Adenovirus, HIV and HPV Prophylaxis” (priority 1999, published 2007)
Several values for one entry are separate records, joined by “and”; a condition that tells them apart may be missing. Identical values can stand only once.

What was measured:
[1] = test system: NL-HX (T cell-tropic isolate) Virus; experiment: Inactivation of HIV stock by 1 hr drug treatment, then PBMC infection, fluorescent focus assay (NL-HX); type: cell-based, Human Immunodeficiency Virus (HIV); conditions: for Average # infected cells/area / # infected cells/area (~500 cells): 8 days; for # infected cells/area (~500 cells): single area counts
Procedure: In a study of the prophylactic effects of Compound 96 on Human Immunodeficiency Virus (HIV), virus stock solutions were inactivated by treatment with Compound 96. Stock solutions of viral types NL-HX-ADA having a p24 concentration of 4.1 μg/ml and NL-HX (P122) having a p24 concentration of 3.8 μg/ml were used for the study, along with a stock solution of Compound 96 having a concentration of 20 mg/ml in RPMI media.
Concentrated stock solution of viruses were treated for 1 hr with equal volume of medium containing the drug at the following concentrations:
(§1) After the 1 hr treatment period, the virus-drug solutions were diluted 1:1,000 with complete medium, and then mixed with an equal volume of Peripheral Blood Mononucleocyte (PBMC) cells, for a final dilution of virus and drug of 1:4,000.
(§2) The infected cultures were then incubated without any washing or other changes in media for 4 days (for the M-tropic NL-HX-ADA type) and 8 days (for the T-tropic NL-HX type). The cultures were then assayed for infection using standard fluorescent focus assays to quantitate infected cells.

[2] = test system: NL-HX (T cell-tropic isolate) Virus; experiment: Control infections: untreated NL-HX virus added to PBMC cultures containing the final dilution of the drug; type: cell-based, Human Immunodeficiency Virus (HIV); conditions: for Control culture: # infected cells/area (~500 cells) / Control culture: Average # infected cells/area: untreated virus; for Control culture: # infected cells/area (~500 cells): single area counts
Procedure: as §1, §2
Control infections were performed by adding untreated viruses at a p24 concentration of 1 ng/ml into cultures containing the final dilution of the drug. This controlled for any residual effect the diluted drug may have on the health of the PBMC culture and their ability to replicate virus.

[3] = virus treated 1 hr at 0.625 mg/ml
[4] = virus treated 1 hr at 1.25 mg/ml
[5] = virus treated 1 hr at 2.5 mg/ml

SMILES: CC1=CC(C)=[N+]2CC[N+]3=C(C)C=C(C)[O][Co-4]23([n+]2cc[nH]c2C)([n+]2cc[nH]c2C)[O]1.[Br-] [Compound 96]
- reduction in infectivity ([1]; any drug-treated sample vs control infection (800-1200 infected cells per well)): ≥ 1,000 fold
- infected cells when the entire well was scanned ([1]; any of the drug-treated samples): No infected cells were detected
- inactivation of treated virus ([1]; even at the lowest concentration of drug tested (0.625 mg/ml), 1 hr treatment): completely inactivated
- Average # infected cells/area [1, 3]: 0 cells/area
- # infected cells/area (~500 cells) [1, 3]: 0 cells/area
- Average # infected cells/area [1, 4]: 0 cells/area
- # infected cells/area (~500 cells) [1, 4]: 0 cells/area
- Average # infected cells/area [1, 5]: 0 cells/area
- # infected cells/area (~500 cells) [1, 5]: 0 cells/area
- Average # infected cells/area ([1]; virus treated 1 hr at 5 mg/ml): 0 cells/area
- # infected cells/area (~500 cells) ([1]; virus treated 1 hr at 5 mg/ml): 0 cells/area
- Average # infected cells/area ([1]; virus treated 1 hr at 10 mg/ml): 0 cells/area
- # infected cells/area (~500 cells) ([1]; virus treated 1 hr at 10 mg/ml): 0 cells/area
- toxicity or inhibition in control cultures receiving the diluted drugs ([2]; even at the highest concentration tested (5 μg/ml)): No toxicity or inhibition
- Control culture: # infected cells/area (~500 cells) ([2]; culture with final dilution of the 0.625 mg/ml (residual 0.3 μg/ml)): 11 cells/area and 10 cells/area
- Control culture: # infected cells/area (~500 cells) ([2]; culture with final dilution of the 1.25 mg/ml (residual 0.6 μg/ml)): 9 cells/area and 8 cells/area and 11 cells/area and 10 cells/area
- Control culture: # infected cells/area (~500 cells) ([2]; culture with final dilution of the 2.5 mg/ml column (residual 1.25 μg/ml)): 10 cells/area and 11 cells/area
- Control culture: # infected cells/area (~500 cells) ([2]; culture with final dilution of the 5 mg/ml column (residual 2.5 μg/ml)): 10 cells/area and 8 cells/area and 9 cells/area
- Control culture: # infected cells/area (~500 cells) ([2]; culture with final dilution of the 10 mg/ml column (residual 5 μg/ml)): 10 cells/area and 9 cells/area and 11 cells/area
- Control culture: Average # infected cells/area ([2]; final dilution of the 0.625 mg/ml column (residual 0.3 μg/ml)): 10.3 cells/area
- Control culture: Average # infected cells/area ([2]; final dilution of the 1.25 mg/ml column (residual 0.6 μg/ml)): 9.5 cells/area
- Control culture: Average # infected cells/area ([2]; final dilution of the 2.5 mg/ml column (residual 1.25 μg/ml)): 10.3 cells/area
- Control culture: Average # infected cells/area ([2]; final dilution of the 5 mg/ml column (residual 2.5 μg/ml)): 8.8 cells/area
- Control culture: Average # infected cells/area ([2]; final dilution of the 10 mg/ml column (residual 5 μg/ml)): 9.8 cells/area
